# pIC50: −log10 of the molar value.
# Target: T1, TNF-α (Homo sapiens, UniProt P01375)
# T1 construct: purchased R&D 210-TA-020/CF
# Assay: TNF-α Induced HEK Blue Cellular Assay (secreted alkaline phosphatase expression, QUANTI-Blue)
# Format: cell-based
# Conditions: HEK Blue TNFα reporter cells; TNF-α 100 μg/ml; 24 hrs at 37° C.; inhibition of secreted alkaline phosphatase; read-out: IC50 value
# Method in brief: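 Compound was serially diluted from […] to 0.5 nM final, then incubated with 10,000 HEK Blue TNFα reporter cells per well and […] TNF-α for 24 h at 37° C. SEAP output was read by QUANTI-Blue absorbance at 620 nm. Inhibition was background-corrected against DMSO controls with and without stimulation, and IC50 was fitted with a 4-parameter logistic equation.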
# T1 sequence (P01375 77-233 limits assumed): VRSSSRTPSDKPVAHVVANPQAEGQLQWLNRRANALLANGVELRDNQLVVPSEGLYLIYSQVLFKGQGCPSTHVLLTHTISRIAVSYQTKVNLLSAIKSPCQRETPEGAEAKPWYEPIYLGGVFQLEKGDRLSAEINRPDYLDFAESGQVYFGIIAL
row,Compound,pIC50
1,"[2H]C([2H])([2H])N1C(=O)c2cccc(OC(F)F)c2[C@H]2C[C@@H]1c1nc3ccc(C#CC4(C)CN(C(=O)C(C)(C)C#N)C4)cc3n12 [Example 157, 3-(3-(((7R,14R)-1-(difluoromethoxy)-6-(methyl-d3)-5-oxo-5,6,7,14-tetrahydro-7,14-methanobenzo[f]benzo[4,5]imidazo[1,2-a][1,4]diazocin-11-yl)ethynyl)-3-methylazetidin-1-yl)-2,2-dimethyl-3-oxopropanenitrile]",6.00 to 7.00
2,"[2H]C([2H])([2H])N1C(=O)c2cccc(OC(F)F)c2[C@H]2C[C@@H]1c1nc3ccc(C#CCCN(C)C)cc3n12 [Example 163, (7R,14R)-1-(difluoromethoxy)-11-(4-(dimethylamino)but-1-yn-1-yl)-6-(methyl-d3)-6,7-dihydro-7,14-methanobenzo[f]benzo[4,5]imidazo[1,2-a][1,4]diazocin-5(14H)-one]",6.00 to 7.00
3,"[2H]C([2H])([2H])N1C(=O)c2cccc(OC(F)F)c2[C@H]2C[C@@H]1c1nc3ccc(C#CC4(C)CN(CCO)C4)cc3n12 [Example 164, (7R,14R)-1-(difluoromethoxy)-11-((1-(2-hydroxyethyl)-3-methylazetidin-3-yl)ethynyl)-6-(methyl-d3)-6,7-dihydro-7,14-methanobenzo[f]benzo[4,5]imidazo[1,2-a][1,4]diazocin-5(14H)-one]",6.00 to 7.00
4,"[2H]C([2H])([2H])N1C(=O)c2cccc(OC(F)F)c2[C@H]2C[C@@H]1c1nc3ccc(C#CC4(C)CN(C(=O)C5(C)CC5)C4)cc3n12 [Example 165, (7R,14R)-1-(difluoromethoxy)-6-(methyl-d3)-11-((3-methyl-1-(1-methylcyclopropane-1-carbonyl)azetidin-3-yl)ethynyl)-6,7-dihydro-7,14-methanobenzo[f]benzo[4,5]imidazo[1,2-a][1,4]diazocin-5(14H)-one]",6.00 to 7.00
5,"[2H]C([2H])([2H])N1C(=O)c2cccc(OC(F)F)c2[C@H]2C[C@@H]1c1nc3ccc(C#CC4CC4)c(F)c3n12 [Example 168, (7R,14R)-11-(cyclopropylethynyl)-1-(difluoromethoxy)-12-fluoro-6-(methyl-d3)-6,7-dihydro-7,14-methanobenzo[f]benzo[4,5]imidazo[1,2-a][1,4]diazocin-5(14H)-one]",6.00 to 7.00
6,"[2H]C([2H])([2H])N1C(=O)c2cccc(OC(F)F)c2[C@H]2C[C@@H]1c1nc3ccc(C#C[C@H](C)O)cc3n12 [Example 169, (7R,14R)-1-(difluoromethoxy)-11-((S)-3-hydroxybut-1-yn-1-yl)-6-(methyl-d3)-6,7-dihydro-7,14-methanobenzo[f]benzo[4,5]imidazo[1,2-a][1,4]diazocin-5(14H)-one]",6.00 to 7.00
7,"[2H]C([2H])([2H])N1C(=O)c2cccc(OC(F)F)c2[C@H]2C[C@@H]1c1nc3ccc(C#CC)c(F)c3n12 [Example 170, (7R,14R)-1-(difluoromethoxy)-12-fluoro-6-(methyl-d3)-11-(prop-1-yn-1-yl)-6,7-dihydro-7,14-methanobenzo[f]benzo[4,5]imidazo[1,2-a][1,4]diazocin-5(14H)-one]",> 7.00
8,"[2H]C([2H])([2H])N1C(=O)c2cccc(OC(F)F)c2[C@H]2C[C@@H]1c1nc3ccc(C#CCNC(=O)C4CC4)cc3n12 [Example 171, N-(3-((7R,14R)-1-(difluoromethoxy)-6-(methyl-d3)-5-oxo-5,6,7,14-tetrahydro-7,14-methanobenzo[f]benzo[4,5]imidazo[1,2-a][1,4]diazocin-11-yl)prop-2-yn-1-yl)cyclopropanecarboxamide]",> 7.00
9,"[2H]C([2H])([2H])N1C(=O)c2cccc(OC(F)F)c2[C@H]2C[C@@H]1c1nc3ccc(C#CCCl)cc3n12 [Example 172, (7R,14R)-11-(3-chloroprop-1-yn-1-yl)-1-(difluoromethoxy)-6-(methyl-d3)-6,7-dihydro-7,14-methanobenzo[f]benzo[4,5]imidazo[1,2-a][1,4]diazocin-5(14H)-one]",> 7.00
10,"[2H]C([2H])([2H])N1C(=O)c2cccc(OC(F)F)c2[C@H]2C[C@@H]1c1nc3ccc(C#CC4CCN(C(C)=O)CC4)cc3n12 [Example 173, (7R,14R)-11-((1-acetylpiperidin-4-yl)ethynyl)-1-(difluoromethoxy)-6-(methyl-d3)-6,7-dihydro-7,14-methanobenzo[f]benzo[4,5]imidazo[1,2-a][1,4]diazocin-5(14H)-one]",> 7.00
11,"[2H]C([2H])([2H])N1C(=O)c2cccc(OC(F)F)c2[C@H]2C[C@@H]1c1nc3ccc(C#CC4CCN(C(=O)C5CC5)CC4)cc3n12 [Example 174, (7R,14R)-11-((1-(cyclopropanecarbonyl)piperidin-4-yl)ethynyl)-1-(difluoromethoxy)-6-(methyl-d3)-6,7-dihydro-7,14-methanobenzo[f]benzo[4,5]imidazo[1,2-a][1,4]diazocin-5(14H)-one]",> 7.00
12,"[2H]C([2H])([2H])N1C(=O)c2cccc(OC(F)F)c2[C@H]2C[C@@H]1c1nc3c(F)cc(C#CC4CC4)cc3n12 [Example 175, (7R,14R)-11-(cyclopropylethynyl)-1-(difluoromethoxy)-9-fluoro-6-(methyl-d3)-6,7-dihydro-7,14-methanobenzo[f]benzo[4,5]imidazo[1,2-a][1,4]diazocin-5(14H)-one]",> 7.00
13,"[2H]C([2H])([2H])N1C(=O)c2cccc(OC(F)F)c2[C@H]2C[C@@H]1c1nc3ccc(C#CC4CC(C)(O)C4)cc3n12 (stereo partly drawn) [Example 177, (7R,14R)-1-(difluoromethoxy)-11-((3-hydroxy-3-methylcyclobutyl)ethynyl)-6-(methyl-d3)-6,7-dihydro-7,14-methanobenzo[f]benzo[4,5]imidazo[1,2-a][1,4]diazocin-5(14H)-one]",> 7.00
14,"[2H]C([2H])([2H])N1C(=O)c2cccc(OC(F)F)c2[C@H]2C[C@@H]1c1nc3ccc(C#CC4(C)CN(CC(F)(F)F)C4)cc3n12 [Example 178, (7R,14R)-1-(difluoromethoxy)-6-(methyl-d3)-11-((3-methyl-1-(2,2,2-trifluoroethyl)azetidin-3-yl)ethynyl)-6,7-dihydro-7,14-methanobenzo[f]benzo[4,5]imidazo[1,2-a][1,4]diazocin-5(14H)-one]",6.00 to 7.00

# Results, then the compound that gave them:
row,pIC50,Compound
1,> 7.00,"[2H]C([2H])([2H])N1C(=O)c2cccc(OC(F)F)c2[C@H]2C[C@@H]1c1nc3ccc(C#CC4(C)CNC4)cc3n12 [Example 158, (7R,14R)-1-(difluoromethoxy)-6-(methyl-d3)-11-((3-methylazetidin-3-yl)ethynyl)-6,7-dihydro-7,14-methanobenzo[f]benzo[4,5]imidazo[1,2-a][1,4]diazocin-5(14H)-one]"
2,> 7.00,"[2H]C([2H])([2H])N1C(=O)c2cccc(OC(F)F)c2[C@H]2C[C@@H]1c1nc3ccc(C#CC4CC(C)(C#N)C4)cc3n12 (stereo partly drawn) [Example 159, 3-(((7R,14R)-1-(difluoromethoxy)-6-(methyl-d3)-5-oxo-5,6,7,14-tetrahydro-7,14-methanobenzo[f]benzo[4,5]imidazo[1,2-a][1,4]diazocin-11-yl)ethynyl)-1-methylcyclobutane-1-carbonitrile]"
3,> 7.00,"[2H]C([2H])([2H])N1C(=O)c2cccc(OC(F)F)c2[C@H]2C[C@@H]1c1nc3ccc(C#CCOCC(F)(F)F)cc3n12 [Example 160, (7R,14R)-1-(difluoromethoxy)-6-(methyl-d3)-11-(3-(2,2,2-trifluoroethoxy)prop-1-yn-1-yl)-6,7-dihydro-7,14-methanobenzo[f]benzo[4,5]imidazo[1,2-a][1,4]diazocin-5(14H)-one]"
4,> 7.00,"[2H]C([2H])([2H])N1C(=O)c2cccc(OC(F)F)c2[C@H]2C[C@@H]1c1nc3ccc(C#CC4(C)CN(C(=O)C5CC5)C4)cc3n12 [Example 161, (7R,14R)-11-((1-(cyclopropanecarbonyl)-3-methylazetidin-3-yl)ethynyl)-1-(difluoromethoxy)-6-(methyl-d3)-6,7-dihydro-7,14-methanobenzo[f]benzo[4,5]imidazo[1,2-a][1,4]diazocin-5(14H)-one]"
5,> 7.00,"[2H]C([2H])([2H])N1C(=O)c2cccc(OC(F)F)c2[C@H]2C[C@@H]1c1nc3ccc(C#CC4(C)CN(S(C)(=O)=O)C4)cc3n12 [Example 162, (7R,14R)-1-(difluoromethoxy)-6-(methyl-d3)-11-((3-methyl-1-(methylsulfonyl)azetidin-3-yl)ethynyl)-6,7-dihydro-7,14-methanobenzo[f]benzo[4,5]imidazo[1,2-a][1,4]diazocin-5(14H)-one]"
6,> 7.00,"[2H]C([2H])([2H])N1C(=O)c2cccc(OC(F)F)c2[C@H]2C[C@@H]1c1nc3ccc(C#CC4CN(C(=O)C5(C)CC5)C4)cc3n12 [Example 166, (7R,14R)-1-(difluoromethoxy)-6-(methyl-d3)-11-((1-(1-methylcyclopropane-1-carbonyl)azetidin-3-yl)ethynyl)-6,7-dihydro-7,14-methanobenzo[f]benzo[4,5]imidazo[1,2-a][1,4]diazocin-5(14H)-one]"
7,> 7.00,"[2H]C([2H])([2H])N1C(=O)c2cccc(OC(F)F)c2[C@H]2C[C@@H]1c1nc3ccc(C#CC4(C)CN(C(=O)C(C)(C)C)C4)cc3n12 [Example 167, (7R,14R)-1-(difluoromethoxy)-6-(methyl-d3)-11-((3-methyl-1-pivaloylazetidin-3-yl)ethynyl)-6,7-dihydro-7,14-methanobenzo[f]benzo[4,5]imidazo[1,2-a][1,4]diazocin-5(14H)-one]"

# Same assay, conditions: IC50 value, HEK Blue TNFα reporter cells; TNF-α 100 μg/ml; 24 hrs at 37° C.; inhibition of secreted alkaline phosphatase
row,Compound,pIC50
1,"[2H]C([2H])([2H])N1C(=O)c2cccc(OC(F)F)c2[C@H]2C[C@@H]1c1nc3ccc(C#CCOC4CCC4)cc3n12 [Example 176, (7R,14R)-11-(3-cyclobutoxyprop-1-yn-1-yl)-1-(difluoromethoxy)-6-(methyl-d3)-6,7-dihydro-7,14-methanobenzo[f]benzo[4,5]imidazo[1,2-a][1,4]diazocin-5(14H)-one]",6.00 to 7.00

# Source: patent publication US20260365682A1, “MODULATORS OF TNF-ALPHA ACTIVITY” (Forward Therapeutics, Inc., priority 2022, published 2026)
